Assay results from PMC7915026, “Sulfaguanidine Hybrid with Some New Pyridine-2-One Derivatives: Design, Synthesis, and Antimicrobial Activity against Multidrug-Resistant Bacteria as Dual DNA Gyrase and DHFR Inhibitors” (Antibiotics, 2021).
Values after ≈ are worked out from the molar mass of the structure shown. Like-named read-outs stand apart in the source and are kept apart here.

Tests used:
S. aureus ATCC 33591 [1] = experiment: MIC and MBC against multidrug-resistant strains; type: cell-based; details: Staphylococcus aureus, ATCC33591, S. aureus ATCC 33591
Description: (§1) Norfloxacin was used as a positive control for the multidrug resistance study.
(§2) The experiment was repeating for three-times.

E. coli ATCC BAA-196 [2] = experiment: MIC and MBC against multidrug-resistant strains; type: cell-based; details: Escherichia coli, ATCCBAA196, E. coli ATCC BAA-196
Description: as §1, §2

[3] = test system: P. aeruginosa ATCC BAA-2111; experiment: MIC and MBC against multidrug-resistant strains; type: cell-based; details: P. aeruginosa ATCC BAA-2111
Description: as §1, §2

S. aureus ATCC 43300 [4] = experiment: MIC and MBC against multidrug-resistant strains; type: cell-based; details: Staphylococcus aureus, ATCC43300, S. aureus ATCC 43300
Description: as §1, §2

MDRB strains = experiment: MIC and MBC, ranges over the MDRB panel; type: cell-based; details: four MDRB strains
Description: as §1, §2

P. aeruginosa ATCC 27853 [5] = experiment: MIC and MBC determination; type: cell-based; details: Pseudomonas aeruginosa, ATCC27853, P. aeruginosa
[6] = test system: F. oxysporum (RCMB 008002); experiment: MIC and MFC determination; type: cell-based
E. coli ATCC 25922 [7] = experiment: MIC and MBC determination; type: cell-based; details: E. coli
S. aureus ATCC 29213 [8] = experiment: MIC and MBC determination; type: cell-based; details: S. aureus
[9] = target: E. coli DHFR (dihydrofolate reductase) (Escherichia coli, UniProt P0ABQ4); experiment: In vitro DHFR enzymatic assay; type: biochemical
Sequence of E. coli DHFR (dihydrofolate reductase) (P0ABQ4 whole entry): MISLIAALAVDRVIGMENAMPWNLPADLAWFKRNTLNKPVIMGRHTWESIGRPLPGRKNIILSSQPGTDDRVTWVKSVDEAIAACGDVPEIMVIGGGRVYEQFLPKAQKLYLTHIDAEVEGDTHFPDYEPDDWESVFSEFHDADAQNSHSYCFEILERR

C. albicans (ATCC 10231) [10] = experiment: MIC and MFC determination; type: cell-based
B. subtilis ATCC 6633 [11] = experiment: MIC and MBC determination; type: cell-based; details: B. subtilis
B. subtilis ATCC 6633 [12] = experiment: Inhibition zone, paper disk/agar diffusion; type: cell-based; details: B. subtilis; Na = no activity
Description: (§3) The antimicrobial activity performed at the bacteriology laboratory, Botany and Microbiology Department, Faculty of Science, Al-Azhar University, Cairo, Egypt. The inhibition zone (IZ) of the tested derivatives expressed as the diameter (mm) according to the agar plate diffusion method.

[13] = test system: F. oxysporum (RCMB 008002); experiment: Inhibition zone, paper disk/agar diffusion; type: cell-based; details: Na = no activity
Description: as §3

E. coli ATCC 25922 [14] = experiment: Inhibition zone, paper disk/agar diffusion; type: cell-based; details: E. coli; Na = no activity
Description: as §3

S. aureus ATCC 29213 [15] = experiment: Inhibition zone, paper disk/agar diffusion; type: cell-based; details: S. aureus; Na = no activity
Description: as §3

C. albicans (ATCC 10231) [16] = experiment: Inhibition zone, paper disk/agar diffusion; type: cell-based; details: Na = no activity
Description: as §3

E. faecalis ATCC 29212 [17] = experiment: Inhibition zone, paper disk/agar diffusion; type: cell-based; details: E. faecalis; Na = no activity
Description: as §3

S. typhi ATCC 6539 = experiment: Inhibition zone, paper disk/agar diffusion; type: cell-based; details: S. typhi; Na = no activity
Description: as §3

P. aeruginosa ATCC 27853 [18] = experiment: Inhibition zone, paper disk/agar diffusion; type: cell-based; details: P. aeruginosa; Na = no activity
Description: as §3

S. aureus ATCC 33591 [19] = experiment: Inhibition zone against multidrug-resistant bacteria; type: cell-based; details: MDRB S. aureus ATCC 33591
Description: as §1, §3

E. coli ATCC BAA-196 [20] = experiment: as above; type: cell-based; details: MDRB E. coli ATCC BAA-196
Description: as §1, §3

[21] = test system: P. aeruginosa ATCC BAA-2111; experiment: as above; type: cell-based; details: MDRB P. aeruginosa ATCC BAA-2111
Description: as §1, §3

S. aureus ATCC 43300 [22] = experiment: as above; type: cell-based; details: MDRB S. aureus ATCC 43300
Description: as §1, §3

E. faecalis ATCC 29212 [23] = experiment: MIC and MBC determination; type: cell-based; details: E. faecalis
[24] = test system: Salmonella typhi (S. typhi ATCC 6539); experiment: microbe, parasite or virus in culture; type: cell-based; details: Salmonella enterica, Salmonella typhi
S. aureus DNA gyrase = S. aureus DNA gyrase (Staphylococcus aureus, UniProt P0A0K8+P20831); experiment: In vitro DNA gyrase supercoiling enzymatic assay; type: biochemical
Sequence of S. aureus DNA gyrase (P20831 whole entry): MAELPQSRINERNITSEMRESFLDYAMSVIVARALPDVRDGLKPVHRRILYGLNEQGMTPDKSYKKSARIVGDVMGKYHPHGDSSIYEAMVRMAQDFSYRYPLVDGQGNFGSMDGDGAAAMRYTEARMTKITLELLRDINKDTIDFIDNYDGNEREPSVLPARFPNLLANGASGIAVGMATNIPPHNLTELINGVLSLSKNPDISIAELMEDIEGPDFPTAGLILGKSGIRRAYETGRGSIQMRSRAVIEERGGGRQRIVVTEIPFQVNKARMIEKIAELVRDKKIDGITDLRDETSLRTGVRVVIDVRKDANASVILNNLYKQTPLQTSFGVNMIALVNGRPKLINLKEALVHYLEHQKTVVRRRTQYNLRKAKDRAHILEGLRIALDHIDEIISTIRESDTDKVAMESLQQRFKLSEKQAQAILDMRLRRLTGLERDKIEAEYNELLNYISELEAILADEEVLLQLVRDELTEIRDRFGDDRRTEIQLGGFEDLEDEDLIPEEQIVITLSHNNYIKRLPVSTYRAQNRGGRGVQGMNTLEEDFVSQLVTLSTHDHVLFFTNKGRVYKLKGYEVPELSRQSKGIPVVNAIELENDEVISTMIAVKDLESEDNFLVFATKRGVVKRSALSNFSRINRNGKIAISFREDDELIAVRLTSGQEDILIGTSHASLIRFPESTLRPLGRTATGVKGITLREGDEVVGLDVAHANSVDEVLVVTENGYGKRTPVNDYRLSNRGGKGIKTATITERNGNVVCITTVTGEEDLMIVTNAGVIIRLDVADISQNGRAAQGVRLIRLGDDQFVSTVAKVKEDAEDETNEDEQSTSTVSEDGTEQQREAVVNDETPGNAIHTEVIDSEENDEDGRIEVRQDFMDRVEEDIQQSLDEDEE
Sequence of S. aureus DNA gyrase (P0A0K8 whole entry): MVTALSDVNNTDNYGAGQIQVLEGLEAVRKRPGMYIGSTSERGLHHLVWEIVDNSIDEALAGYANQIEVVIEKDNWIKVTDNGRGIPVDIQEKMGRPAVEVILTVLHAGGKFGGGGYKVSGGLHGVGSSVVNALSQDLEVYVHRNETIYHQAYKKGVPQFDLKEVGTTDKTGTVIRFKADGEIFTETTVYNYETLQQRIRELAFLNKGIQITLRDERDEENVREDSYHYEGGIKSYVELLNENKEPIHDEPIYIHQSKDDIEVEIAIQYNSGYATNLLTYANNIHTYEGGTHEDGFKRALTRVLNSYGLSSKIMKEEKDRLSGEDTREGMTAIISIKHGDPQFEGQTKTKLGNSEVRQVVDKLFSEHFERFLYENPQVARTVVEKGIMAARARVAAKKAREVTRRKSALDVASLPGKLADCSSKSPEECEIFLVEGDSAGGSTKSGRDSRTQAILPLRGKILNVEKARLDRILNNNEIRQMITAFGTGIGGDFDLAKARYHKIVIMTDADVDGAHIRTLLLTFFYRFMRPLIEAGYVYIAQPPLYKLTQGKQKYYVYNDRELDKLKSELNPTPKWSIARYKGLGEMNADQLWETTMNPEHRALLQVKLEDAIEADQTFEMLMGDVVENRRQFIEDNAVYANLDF

## N#Cc1c(-c2ccc(Cl)cc2)c(C#N)c(=O)n(-c2ccc(S(=O)(=O)NC(=N)N)cc2)c1N [Compound 3a, 4-(6-Amino-4-(4-chlorophenyl)-3,5-dicyano-2-oxopyridin-1(2H)-yl)-N-carbamimidoylbenzenesulfonamide]
S. aureus ATCC 33591 [1]; read-out: MBC
  MBC: 23.7 ± 0.28 µM (≈ 11.1 µg/mL)
S. aureus ATCC 33591 [1]; read-out: MIC
  MIC: 11.8 ± 0.24 µM (≈ 5.54 µg/mL)
E. coli ATCC BAA-196 [2]; read-out: MBC
  MBC: 33.4 ± 0.84 µM (≈ 15.6 µg/mL)
E. coli ATCC BAA-196 [2]; read-out: MIC
  MIC: 16.7 ± 0.41 µM (≈ 7.81 µg/mL)
[3]
  MBC: 14.23 ± 0.65 µM (≈ 6.66 µg/mL)
  MIC: 9.48 ± 0.54 µM (≈ 4.44 µg/mL)
[3]; Pseudomonas aeruginosa, ATCCBAA2111, read-out: MBC
  MBC: 14.2 µM (≈ 6.66 µg/mL)
[3]; Pseudomonas aeruginosa, ATCCBAA2111, read-out: MIC
  MIC: 9.48 µM (≈ 4.44 µg/mL)
S. aureus ATCC 43300 [4]; read-out: MBC
  MBC: 16.3 ± 0.36 µM (≈ 7.61 µg/mL)
S. aureus ATCC 43300 [4]; read-out: MIC
  MIC: 8.33 ± 0.29 µM (≈ 3.9 µg/mL)
MDRB strains
  MBC range: 14.23 to 33.38 µM
  MIC range: 8.33 to 16.69 µM
P. aeruginosa ATCC 27853 [5]; read-out: MBC
  MBC: 66.8 ± 0.87 µM (≈ 31.2 µg/mL)
P. aeruginosa ATCC 27853 [5]; read-out: MIC
  MIC: 33.4 ± 0.35 µM (≈ 15.6 µg/mL)
[6]
  MFC: 56.74 ± 0.98 µM (≈ 26.5 µg/mL)
  MFC/MIC: <2
  MIC: 33.38 ± 0.74 µM (≈ 15.6 µg/mL)
[6]; Fusarium oxysporum, RCMB008002, read-out: MFC
  MFC: 56.7 µM (≈ 26.5 µg/mL)
[6]; Fusarium oxysporum, RCMB008002, read-out: MIC
  MIC: 33.4 µM (≈ 15.6 µg/mL)
E. coli ATCC 25922 [7]
  MBC: 30.02 ± 0.52 µM (≈ 14 µg/mL)
  MIC: 16.69 ± 0.84 µM (≈ 7.81 µg/mL)
E. coli ATCC 25922 [7]; Escherichia coli, ATCC25922, read-out: MBC
  MBC: 30 µM (≈ 14 µg/mL)
E. coli ATCC 25922 [7]; Escherichia coli, ATCC25922, read-out: MIC
  MIC: 16.7 µM (≈ 7.81 µg/mL)
S. aureus ATCC 29213 [8]
  MBC: 33.38 ± 0.65 µM (≈ 15.6 µg/mL)
  MIC: 16.69 ± 0.87 µM (≈ 7.81 µg/mL)
S. aureus ATCC 29213 [8]; Staphylococcus aureus, ATCC29213, read-out: MBC
  MBC: 33.4 µM (≈ 15.6 µg/mL)
S. aureus ATCC 29213 [8]; Staphylococcus aureus, ATCC29213, read-out: MIC
  MIC: 16.7 µM (≈ 7.81 µg/mL)
[9]
  IC50: 5.44 ± 0.95 µM
[9]; E. coli DHFR IC50
  fold relative to trimethoprim: 0.94 fold
C. albicans (ATCC 10231) [10]
  MFC: 26.69 ± 0.54 µM (≈ 12.5 µg/mL)
  MFC/MIC: <2
  MIC: 16.69 ± 0.75 µM (≈ 7.81 µg/mL)
C. albicans (ATCC 10231) [10]; Candida albicans, ATCC10231, read-out: MFC
  MFC: 26.7 µM (≈ 12.5 µg/mL)
C. albicans (ATCC 10231) [10]; Candida albicans, ATCC10231, read-out: MIC
  MIC: 16.7 µM (≈ 7.81 µg/mL)
B. subtilis ATCC 6633 [11]
  MBC: 19.6 ± 0.65 µM (≈ 9.17 µg/mL)
  MIC: 9.61 ± 1.65 µM (≈ 4.5 µg/mL)
B. subtilis ATCC 6633 [11]; Bacillus subtilis, ATCC6633, read-out: MBC
  MBC: 19.6 µM (≈ 9.17 µg/mL)
B. subtilis ATCC 6633 [11]; Bacillus subtilis, ATCC6633, read-out: MIC
  MIC: 9.61 µM (≈ 4.5 µg/mL)
B. subtilis ATCC 6633 [12]
  Mean Diameter of the Inhibition Zone: 31 ± 0.40 mm
[13]
  Mean Diameter of the Inhibition Zone: 21 ± 0.30 mm
E. coli ATCC 25922 [14]
  Mean Diameter of the Inhibition Zone: 24 ± 0.20 mm
S. aureus ATCC 29213 [15]
  Mean Diameter of the Inhibition Zone: 25 ± 0.31 mm
C. albicans (ATCC 10231) [16]
  Mean Diameter of the Inhibition Zone: 22 ± 0.35 mm
E. faecalis ATCC 29212 [17]
  Mean Diameter of the Inhibition Zone: 21 ± 0.11 mm
S. typhi ATCC 6539
  Mean Diameter of the Inhibition Zone: 18 ± 0.16 mm
P. aeruginosa ATCC 27853 [18]
  Mean Diameter of the Inhibition Zone: 20 ± 0.15 mm
S. aureus ATCC 33591 [19]
  Mean Diameter of Inhibition Zone: 23 ± 0.47 mm
E. coli ATCC BAA-196 [20]
  Mean Diameter of Inhibition Zone: 22 ± 0.23 mm
[21]
  Mean Diameter of Inhibition Zone: 24 ± 0.22 mm
S. aureus ATCC 43300 [22]
  Mean Diameter of Inhibition Zone: 25 ± 0.4 mm
E. faecalis ATCC 29212 [23]
  MBC: 15.83 ± 0.47 µM (≈ 7.41 µg/mL)
  MIC: 8.33 ± 0.36 µM (≈ 3.9 µg/mL)
E. faecalis ATCC 29212 [23]; Enterococcus faecalis, ATCC29212, read-out: MBC
  MBC: 15.8 µM (≈ 7.41 µg/mL)
E. faecalis ATCC 29212 [23]; Enterococcus faecalis, ATCC29212, read-out: MIC
  MIC: 8.33 µM (≈ 3.9 µg/mL)
[24]; read-out: MBC
  MBC: 22.6 ± 0.32 µM (≈ 10.6 µg/mL)
[24]; read-out: MIC
  MIC: 11.9 ± 0.62 µM (≈ 5.57 µg/mL)
S. aureus DNA gyrase
  IC50: 22 ± 1.35 µM
S. aureus DNA gyrase; S. aureus DNA gyrase IC50
  fold potency relative to ciprofloxacin: ~1.19 fold
